Assay results reported in US20220143194A1, “SELENIUM ANTIBODY CONJUGATES” (priority 2020, published 2022).
Non-standard residues stand in square brackets, D forms with d. Residues, ends and D or L forms follow the SMILES beside them. *: point of attachment. Dolaproine = CO[C@@H]([C@@H]1CCCN1)[C@@H](C)C(=O)O; Dil = CC[C@H](C)[C@H](NC)[C@@H](CC(=O)O)OC; X1 = C[C@@H](N*)[C@@H](O)c1ccccc1; NMeV = CN[C@H](C(=O)O)C(C)C

Legend:
NCI H1975 (Her2−) cells = experiment: In vitro cytotoxicity assay (CCK8 cell viability), NCI H1975 (Her2−) negative control cells; type: cell-based; details: 3 days incubation
Experimental: (§1) The ability of various antibody-drug conjugates and naked payloads to kill antigen-expressing tumor cells in vitro was assessed.
(§2) SKBR3 (Her2+) cells were seeded in 96 well plates at 8000 cells per well in complete growth media and grown overnight. For cell viability curves, serially diluted conjugates or naked payloads were added to the cells at final concentrations ranging from 100 nM to 5 pM and incubated for 3 days. NCI H1975 (Her2−) cells were run as negative controls using similar conditions. To measure viability, cells were incubated with CCK8 (Dojindo) for the final 2 hours and the absorbance at 450 nm (OD450) was determined on a Victor (Perkin Elmer). Background OD450 levels determined from digitonin (40 nM) treated cells were subtracted from all wells and viability is expressed as a percentage of the untreated controls. IC50 values were determined from a four-parameter logistic equation over a 10-point response curve (GraphPad Prism). […] The interchain disulfide conjugates had similar IC50 values as the transglutaminase site-specific selenocystamine conjugates. […] For comparison, the mc-vc-PAB-MMAE interchain disulfide conjugated molecules were produced according to Doronina, S. O. et al., Nat. Biotechnol., 2003, 21, 778.

SKBR3 (Her2+) cells = experiment: In vitro cytotoxicity assay (CCK8 cell viability), SKBR3 (Her2+) cells; type: cell-based
Experimental: as §1, §2

CC[C@H](C)[C@@H]([C@@H](CC(=O)N1CCC[C@H]1[C@H](OC)[C@@H](C)C(=O)N[C@H](C)[C@@H](O)c1ccccc1)OC)N(C)C(=O)[C@@H](NC(=O)[C@@H](NC)C(C)C)C(C)C [MMAE, monomethyl auristatin E] (H-[NMeV]V[Dil][Dolaproine]-X1)
% Kill (NCI H1975 (Her2−) cells; concentrations 100 nM to 5 pM): 100%
IC50 (NCI H1975 (Her2−) cells; Homo sapiens, 72 h, IC50 corrected for payload equivalents): 0.405 nM
IC50 (SKBR3 (Her2+) cells; Homo sapiens, SK-BR-3, 72 h): 0.191 nM
% Kill (SKBR3 (Her2+) cells; SK-BR-3 cells, 3 days incubation, CCK8 viability, concentrations 100 nM to 5 pM): 93.6%
